In PubChem BioAssay AID248 (DTP/NCI, 2004):
Where “and” joins values, the source holds several entries; their conditions need not be identical. Identical values can stand only once. Toxic doses and inconclusive results are not listed. Cut-off read from the data, not from the text of the source: active = T/C of 150% or more; inactive = T/C below 125%.

Tested on: L1210 leukemia ip in BDF1 mice, survival T/C
Experiment: NCI In Vivo Anticancer Drug Screen. Data for tumor model L1210 Leukemia (intraperitoneal) in B6D2F1 (BDF1) mice
Details: endpoint: mean survival time, higher = longer survival
Method in brief: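 Read-out is survival time, reported as the treated-group measurement over the vehicle-control measurement.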

[1] = dose: 100.0 mg/kg/injection, schedule: Q04DX003 (ip), vehicle: Klucel (hydroxypropylcellulose) (HPC)
[2] = dose: 200.0 mg/kg/injection, schedule: Q04DX003 (ip), vehicle: Klucel (hydroxypropylcellulose) (HPC)
[3] = dose: 400.0 mg/kg/injection, schedule: Q04DX003 (ip), vehicle: Klucel (hydroxypropylcellulose) (HPC)
[4] = dose: 50.0 mg/kg/injection, schedule: Q01DX009 (ip), vehicle: saline
[5] = dose: 100.0 mg/kg/injection, schedule: Q01DX009 (ip), vehicle: saline
[6] = dose: 200.0 mg/kg/injection, schedule: Q01DX009 (ip), vehicle: saline
[7] = dose: 100.0 mg/kg/injection, schedule: Q01DX009 (ip), vehicle: Klucel (hydroxypropylcellulose) (HPC)
[8] = dose: 200.0 mg/kg/injection, schedule: Q01DX009 (ip), vehicle: Klucel (hydroxypropylcellulose) (HPC)
[9] = dose: 100.0 mg/kg/injection, schedule: Q01DX009 (sc), vehicle: olive oil, sesame oil, peanut oil
[10] = dose: 100.0 mg/kg/injection, schedule: Q04DX003 (sc), vehicle: olive oil, sesame oil, peanut oil
[11] = dose: 200.0 mg/kg/injection, schedule: Q01DX009 (sc), vehicle: olive oil, sesame oil, peanut oil
[12] = dose: 200.0 mg/kg/injection, schedule: Q04DX003 (sc), vehicle: olive oil, sesame oil, peanut oil
[13] = dose: 400.0 mg/kg/injection, schedule: Q01DX009 (sc), vehicle: olive oil, sesame oil, peanut oil
[14] = dose: 400.0 mg/kg/injection, schedule: Q04DX003 (sc), vehicle: olive oil, sesame oil, peanut oil
[15] = dose: 100.0 mg/kg/injection, schedule: Q01DX001 (ip), vehicle: saline
[16] = dose: 400.0 mg/kg/injection, schedule: Q01DX001 (ip), vehicle: saline
[17] = dose: 200.0 mg/kg/injection, schedule: Q01DX001 (ip), vehicle: saline
[18] = dose: 100.0 mg/kg/injection, schedule: Q04DX003 (ip), vehicle: saline
[19] = dose: 200.0 mg/kg/injection, schedule: Q04DX003 (ip), vehicle: saline
[20] = dose: 100.0 mg/kg/injection, schedule: Q01DX001 (ip), vehicle: Klucel (hydroxypropylcellulose) (HPC)
[21] = dose: 200.0 mg/kg/injection, schedule: Q01DX001 (ip), vehicle: Klucel (hydroxypropylcellulose) (HPC)
[22] = dose: 400.0 mg/kg/injection, schedule: Q01DX001 (ip), vehicle: Klucel (hydroxypropylcellulose) (HPC)

Measured: T/C

Cc1cc2c(c3oc(C4(C)OC4C4OC4C)cc(=O)c13)C(=O)c1c(O)c(C3CC(C)(N(C)C)C(O)C(C)O3)cc(C3CC(N(C)C)C(O)C(C)O3)c1C2=O (stereo not drawn)
inactive: dose: 0.06 mg/kg/injection, schedule: Q01DX009 (ip), vehicle: other 118 % of control | dose: 0.06 mg/kg/injection, schedule: Q01DX009 (ip), vehicle: saline 114 % of control | dose: 0.12 mg/kg/injection, schedule: Q01DX009 (ip), vehicle: other 95 % of control | dose: 0.12 mg/kg/injection, schedule: Q01DX009 (ip), vehicle: saline 86 % of control | dose: 0.24 mg/kg/injection, schedule: Q01DX009 (ip), vehicle: saline 88 % of control | dose: 1.5 micrograms/kg/injection, schedule: Q01DX015 (ip), vehicle: saline 115 % of control | dose: 3.0 micrograms/kg/injection, schedule: Q01DX015 (ip), vehicle: saline 114 % of control | dose: 4.0 micrograms/kg/injection, schedule: Q01DX001 (ip), vehicle: carboxymethylcellulose (CMC) 110 % of control | dose: 6.0 micrograms/kg/injection, schedule: Q01DX015 (ip), vehicle: saline 117 % of control | dose: 9.0 micrograms/kg/injection, schedule: Q01DX001 (ip), vehicle: carboxymethylcellulose (CMC) 109 % of control | dose: 12.0 micrograms/kg/injection, schedule: Q01DX015 (ip), vehicle: saline 117 % of control | dose: 18.0 micrograms/kg/injection, schedule: Q01DX001 (ip), vehicle: carboxymethylcellulose (CMC) 112 % of control | dose: 25.0 micrograms/kg/injection, schedule: Q01DX Z (ip), vehicle: carboxymethylcellulose (CMC) 107 % of control | dose: 37.0 micrograms/kg/injection, schedule: Q01DX001 (ip), vehicle: carboxymethylcellulose (CMC) 112 % of control | dose: 50.0 micrograms/kg/injection, schedule: Q01DX Z (ip), vehicle: carboxymethylcellulose (CMC) 98 % of control | dose: 75.0 micrograms/kg/injection, schedule: Q01DX001 (ip), vehicle: carboxymethylcellulose (CMC) 121 % of control | dose: 96.0 micrograms/kg/injection, schedule: Q01DX015 (ip), vehicle: saline 108 % of control

COC(=O)C(CSC(c1ccc(N(C)C)cc1)c1ccc(N(C)C)cc1)NC(=O)OCc1ccccc1 (stereo not drawn)
inactive: dose: 75.0 mg/kg/injection, schedule: Q01DX001 (ip), vehicle: carboxymethylcellulose (CMC) 97 % of control | dose: 300.0 mg/kg/injection, schedule: Q01DX001 (ip), vehicle: carboxymethylcellulose (CMC) 94 % of control

CN(C)c1ccc(C=Nc2cc(Cl)ccc2Cl)cc1
inactive: [1] 89 % of control | [2] 88 % of control | [3] 89 % of control

C/C=C\C(C)C(C)C (stereo not drawn)
inactive: [4] 93 % of control | [5] 97 % of control | [6] 93 % of control

CC(=O)Nc1ccc(NC(=O)NCCCCCCNC(=O)Nc2ccc(NC(C)=O)cc2)cc1
inactive: [7] 102 % of control | [8] 98 % of control | dose: 400.0 mg/kg/injection, schedule: Q01DX009 (ip), vehicle: Klucel (hydroxypropylcellulose) (HPC) 100 % of control

CCOC(=O)c1cc([N+](=O)[O-])c(C)s1
inactive: [9] 104 % of control | [10] 101 % of control | [11] 95 % of control | [12] 107 % of control | [13] 90 % of control | [14] 106 % of control

CC(=O)N(CC#CCN(C(C)=O)c1ccccc1)c1ccccc1
inactive: dose: 100.0 mg/kg/injection, schedule: Q04DX002 (ip), vehicle: other 111 % of control | dose: 200.0 mg/kg/injection, schedule: Q04DX002 (ip), vehicle: other 105 % of control | dose: 400.0 mg/kg/injection, schedule: Q04DX002 (ip), vehicle: other 97 % of control

O=C(N/N=C/c1ccc(Cl)cc1Cl)c1cccc2ccccc12
inactive: [15] 92 % of control | [16] 86 % of control

O=S(=O)(OCCCl)c1ccc(Cl)c(Cl)c1
inactive: dose: 100.0 mg/kg/injection, schedule: Q01DX001 (ip), vehicle: saline with Tween-80 92 % of control | dose: 200.0 mg/kg/injection, schedule: Q01DX001 (ip), vehicle: saline with Tween-80 100 % of control | dose: 400.0 mg/kg/injection, schedule: Q01DX001 (ip), vehicle: saline with Tween-80 107 % of control

N#CCC1C(=O)Nc2ccccc21 (stereo not drawn)
inactive: [15] 101 % of control | [17] 98 % of control | [16] 101 % of control

N#CSC1CSC(SC2=NC(SC#N)CS2)=N1 (stereo not drawn)
inactive: [7] 94 % of control | [18] 98 % of control | [8] 104 % of control | [19] 92 % of control

O=C1c2cc(Cl)cc(Cl)c2-c2c(NC(=O)C(Cl)Cl)cc(Cl)cc21
inactive: [7] 91 % of control | [1] 95 % of control | [2] 98 % of control | [3] 93 % of control

CCCC(=O)c1cc(C)sc1C
inactive: [9] 90 % of control | [10] 100 % of control | [11] 87 % of control | [12] 93 % of control | [13] 99 % of control | [14] 100 % of control

CN(CCCN1C(=O)c2ccccc2C1=O)c1ccc(N=O)cc1
inactive: dose: 25.0 mg/kg/injection, schedule: Q01DX001 (ip), vehicle: Klucel (hydroxypropylcellulose) (HPC) 101 % of control | dose: 50.0 mg/kg/injection, schedule: Q01DX001 (ip), vehicle: Klucel (hydroxypropylcellulose) (HPC) 95 % of control | [20] 92 % of control and 91 % of control

COc1cc2c(cc1C)OC(C)(CC(=O)O)C2 (stereo not drawn)
inactive: [20] 103 % of control | [21] 96 % of control | [22] 96 % of control

CCCCCCCCCCCCCCCCOc1ccc(NC(N)=S)cc1
inactive: dose: 75.0 mg/kg/injection, schedule: Q04DX003 (ip), vehicle: Klucel (hydroxypropylcellulose) (HPC) 101 % of control | [20] 96 % of control | dose: 150.0 mg/kg/injection, schedule: Q04DX003 (ip), vehicle: Klucel (hydroxypropylcellulose) (HPC) 88 % of control | [21] 97 % of control | dose: 300.0 mg/kg/injection, schedule: Q04DX003 (ip), vehicle: Klucel (hydroxypropylcellulose) (HPC) 89 % of control | [22] 93 % of control

N#Cc1cc[n+](Cc2ccc([N+](=O)[O-])cc2)cc1
inactive: [15] 104 % of control | [17] 98 % of control

Clc1ccc2nc(Cl)c(Cl)nc2c1
inactive: [1] 91 % of control | [2] 96 % of control

CCN(CC)CCOc1ccccc1OC
inactive: dose: 12.0 mg/kg/injection, schedule: Q01DX009 (ip), vehicle: saline 107 % of control | dose: 25.0 mg/kg/injection, schedule: Q01DX009 (ip), vehicle: saline 101 % of control | [4] 101 % of control | [15] 93 % of control | [17] 95 % of control

COc1cc(C[N+]23CC[N+](Cc4cc(OC)c(OC)c(OC)c4)(CC2)C3)cc(OC)c1OC
inactive: [15] 101 % of control | [17] 98 % of control | [16] 95 % of control

NC(=O)NNC(O)(C(F)(F)F)C(F)(F)F
inactive: dose: 100.0 mg/kg/injection, schedule: Q01DX001 (ip), vehicle: carboxymethylcellulose (CMC) 103 % of control | dose: 200.0 mg/kg/injection, schedule: Q01DX001 (ip), vehicle: carboxymethylcellulose (CMC) 108 % of control

ClC1=C(Cl)C2(Cl)CCC1(Cl)C2Cl (stereo not drawn)
inactive: [4] 103 % of control | [5] 98 % of control | [18] 104 % of control | [6] 95 % of control | [19] 103 % of control | dose: 400.0 mg/kg/injection, schedule: Q04DX003 (ip), vehicle: saline 97 % of control

Cn1ccc2c([N+](=O)[O-])cccc2c1=O
inactive: dose: 25.0 mg/kg/injection, schedule: Q04DX003 (ip), vehicle: Klucel (hydroxypropylcellulose) (HPC) 92 % of control | dose: 50.0 mg/kg/injection, schedule: Q04DX003 (ip), vehicle: Klucel (hydroxypropylcellulose) (HPC) 98 % of control
